Experimental data reported in PMC6385246, “The human gut Firmicute Roseburia intestinalis is a primary degrader of dietary β-mannans” (Nature Communications, 2019).

Tests used:
[1] = target: T1, RiPgm (Roseburia intestinalis, UniProt C7G6G9); experiment: HPAEC-PAD of M6P formed; format: biochemical; conditions: 10 mM sodium phosphate pH 5.8, 1 mM MgCl2, 37 °C
T1 construct: gene pgcA_1; recombinant from E. coli, untagged (stop codon before His-tag), HIC purified; encoded in MULL (ROSINTL182_05469-83), own locus tag not in text
T1 sequence (C7G6G9 1-572): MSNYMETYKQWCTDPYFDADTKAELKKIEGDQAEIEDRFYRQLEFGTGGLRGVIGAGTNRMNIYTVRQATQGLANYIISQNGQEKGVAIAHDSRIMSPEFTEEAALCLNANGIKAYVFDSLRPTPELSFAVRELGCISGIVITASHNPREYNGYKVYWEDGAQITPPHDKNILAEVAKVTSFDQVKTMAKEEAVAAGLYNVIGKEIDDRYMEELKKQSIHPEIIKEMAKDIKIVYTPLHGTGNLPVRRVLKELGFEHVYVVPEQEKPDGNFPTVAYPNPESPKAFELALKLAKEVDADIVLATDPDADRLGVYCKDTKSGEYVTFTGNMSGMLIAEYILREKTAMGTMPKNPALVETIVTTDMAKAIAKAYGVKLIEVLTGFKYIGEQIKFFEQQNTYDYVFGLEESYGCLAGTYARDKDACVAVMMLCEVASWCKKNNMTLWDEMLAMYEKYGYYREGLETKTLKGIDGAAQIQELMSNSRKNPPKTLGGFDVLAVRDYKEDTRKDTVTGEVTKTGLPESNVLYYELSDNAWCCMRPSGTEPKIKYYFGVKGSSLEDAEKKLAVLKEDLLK

[2] = target: T2, RiMep (Roseburia intestinalis, UniProt C7G6G3); experiment: HPAEC-PAD of epimerization products; format: biochemical; conditions: 10 mM sodium phosphate pH 5.8, 37 °C
T2 construct: gene ce-ne1; recombinant from E. coli, untagged (stop codon before His-tag), HIC purified
T2 sequence (C7G6G3 1-409): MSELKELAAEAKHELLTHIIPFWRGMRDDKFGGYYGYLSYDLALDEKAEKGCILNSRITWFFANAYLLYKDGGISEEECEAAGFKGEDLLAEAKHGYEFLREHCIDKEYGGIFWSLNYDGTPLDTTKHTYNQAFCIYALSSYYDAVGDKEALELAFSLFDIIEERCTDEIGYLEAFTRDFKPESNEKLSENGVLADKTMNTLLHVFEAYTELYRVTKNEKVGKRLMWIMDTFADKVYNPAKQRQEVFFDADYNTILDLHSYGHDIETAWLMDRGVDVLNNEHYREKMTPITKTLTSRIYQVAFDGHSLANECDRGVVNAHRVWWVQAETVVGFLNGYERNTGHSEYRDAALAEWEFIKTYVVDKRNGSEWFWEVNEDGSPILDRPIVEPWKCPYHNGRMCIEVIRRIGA

[3] = target: T3, RiGH113 (Roseburia intestinalis, UniProt C7G6H0); experiment: HPAEC-PAD of mannose released; format: biochemical; conditions: 10 mM sodium phosphate pH 5.8, 37 °C, overnight
T3 construct: gene RIL182_01090; recombinant from E. coli, untagged (stop codon before His-tag), HIC purified
T3 sequence (C7G6H0 1-311): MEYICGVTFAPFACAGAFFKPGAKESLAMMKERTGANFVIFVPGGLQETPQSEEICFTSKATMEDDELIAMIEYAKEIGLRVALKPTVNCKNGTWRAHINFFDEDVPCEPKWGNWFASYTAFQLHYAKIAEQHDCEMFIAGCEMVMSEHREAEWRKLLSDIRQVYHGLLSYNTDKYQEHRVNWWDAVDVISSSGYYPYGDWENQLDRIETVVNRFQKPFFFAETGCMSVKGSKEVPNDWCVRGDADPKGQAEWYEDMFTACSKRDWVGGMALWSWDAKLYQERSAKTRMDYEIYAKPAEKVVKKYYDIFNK

[4] = target: T4, RiMnBP (Roseburia intestinalis, UniProt C7G6G6); experiment: ITC; format: binding; conditions: 25 °C, 10 mM sodium phosphate pH 6.5
T4 construct: gene msmE; mature form, cloned in pETM-11, expressed in E. coli
T4 sequence (C7G6G6 23-489): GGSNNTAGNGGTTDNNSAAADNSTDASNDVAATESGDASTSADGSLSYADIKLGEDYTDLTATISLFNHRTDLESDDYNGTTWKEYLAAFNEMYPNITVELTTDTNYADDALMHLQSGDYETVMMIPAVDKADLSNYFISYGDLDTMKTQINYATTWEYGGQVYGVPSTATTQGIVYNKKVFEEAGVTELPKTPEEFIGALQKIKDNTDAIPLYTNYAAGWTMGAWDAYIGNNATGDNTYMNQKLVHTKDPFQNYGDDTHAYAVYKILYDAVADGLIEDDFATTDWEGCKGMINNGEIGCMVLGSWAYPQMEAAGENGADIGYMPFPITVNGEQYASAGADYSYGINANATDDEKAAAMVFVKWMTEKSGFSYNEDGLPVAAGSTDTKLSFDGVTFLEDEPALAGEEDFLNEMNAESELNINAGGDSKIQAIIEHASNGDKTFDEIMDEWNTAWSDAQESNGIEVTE

[5] = target: T5, RiCBM27 (Roseburia intestinalis, UniProt Z9TV37KX76); experiment: SPR (Biacore T100, CBM immobilized on NTA chip); format: binding; conditions: 25 °C, 20 mM phosphate/citrate pH 6.5, 150 mM NaCl
T5 construct: expressed in Escherichia coli, immobilized on NTA chip (His6-tag)
T5 sequence (Z9TV37KX76 38-185 limits assumed): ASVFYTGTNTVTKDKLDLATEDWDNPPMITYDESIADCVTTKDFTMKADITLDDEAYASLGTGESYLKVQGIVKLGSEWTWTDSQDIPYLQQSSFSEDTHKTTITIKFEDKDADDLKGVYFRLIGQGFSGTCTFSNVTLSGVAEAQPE
From the text: SPR (Biacore T100, CBM immobilized on NTA chip) on RiCBM27

[6] = target: T6, RiCBM23 (Roseburia intestinalis); experiment: SPR (Biacore T100, CBM immobilized on NTA chip); format: binding; conditions: 25 °C, 20 mM phosphate/citrate pH 6.5, 150 mM NaCl
T6 construct: expressed in Escherichia coli, immobilized on NTA chip (His6-tag)
From the text: SPR (Biacore T100, CBM immobilized on NTA chip) on RiCBM23

[7] = target: T7, RiGH130_2 (Roseburia intestinalis, UniProt C7G6G1); experiment: HPAEC-PAD of phosphorolysis products; format: biochemical; conditions: 100 mM sodium phosphate pH 5.8, 37 °C
T7 construct: gene RIL182_01100; recombinant from E. coli, C-terminal His6-tag
T7 sequence (C7G6G1 entry or part of it): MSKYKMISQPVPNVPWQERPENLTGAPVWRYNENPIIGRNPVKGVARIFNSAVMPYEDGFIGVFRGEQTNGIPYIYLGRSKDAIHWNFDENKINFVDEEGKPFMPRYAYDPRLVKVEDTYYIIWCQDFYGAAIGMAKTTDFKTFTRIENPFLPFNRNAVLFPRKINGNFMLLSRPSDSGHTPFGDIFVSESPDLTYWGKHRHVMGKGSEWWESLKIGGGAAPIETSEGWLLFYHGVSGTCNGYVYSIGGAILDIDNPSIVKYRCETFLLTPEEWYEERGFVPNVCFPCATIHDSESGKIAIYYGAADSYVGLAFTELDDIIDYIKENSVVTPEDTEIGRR

Row | Compound | Kd [4] [µM] | Kd [5] [µM] | Kd [6] [µM] | also measured
1 | O=P(O)(O)O[C@H]1O[C@H](CO)[C@@H](O)[C@H](O)[C@@H]1O [M1P, mannose-1-phosphate] | – | – | – | HPAEC-PAD of M6P formed [1]: RiPgm catalyzes the interconversion of M1P and mannose 6-phosphate (M6P)
2 | OC[C@H]1O[C@@H](O[C@H]2[C@H](O)[C@H](O)C(O)O[C@@H]2CO)[C@@H](O)[C@@H](O)[C@@H]1O (stereo partly drawn) [M2, mannobiose] | – | – | – | HPAEC-PAD of epimerization products [2]: RiMep was active on M2 and cellobiose (G2), releasing M1G1 and G1M1, respectively; HPAEC-PAD of mannose released [3]: After overnight incubation with RiGH113, M2 was partially degraded to mannose
3 | OC[C@H]1O[C@@H](O[C@H]2[C@H](O)[C@H](O)[C@H](O[C@H]3[C@H](O)[C@H](O)C(O)O[C@@H]3CO)O[C@@H]2CO)[C@@H](O)[C@@H](O)[C@@H]1O (stereo partly drawn) [M3, mannotriose] | 2.62 | 1590 ± 30 | 230 ± 20 | –
4 | OC[C@H]1O[C@@H](O[C@H]2[C@H](O)[C@H](O)[C@H](O[C@H]3[C@H](O)[C@H](O)[C@H](O[C@H]4[C@H](O)[C@H](O)C(O)O[C@@H]4CO)O[C@@H]3CO)O[C@@H]2CO)[C@@H](O)[C@@H](O)[C@@H]1O (stereo partly drawn) [M4, mannotetraose] | 3.89 | 658 ± 20 | 130 ± 50 | HPAEC-PAD of phosphorolysis products [7]: phosphorolyzed M4 into M3, M2 and mannose-1-phosphate (M1P)
5 | OC[C@H]1O[C@@H](O[C@H]2[C@H](O)[C@H](O)[C@H](O[C@H]3[C@H](O)[C@H](O)[C@H](O[C@H]4[C@H](O)[C@H](O)[C@H](O[C@H]5[C@H](O)[C@H](O)C(O)O[C@@H]5CO)O[C@@H]4CO)O[C@@H]3CO)O[C@@H]2CO)[C@@H](O)[C@@H](O)[C@@H]1O (stereo partly drawn) [M5, mannopentaose] | 2.55 | 321 ± 20 | 198 ± 70 | –
6 | OC[C@H]1O[C@@H](O[C@H]2[C@H](O)[C@H](O)[C@H](O[C@H]3[C@H](O)[C@H](O)[C@H](O[C@H]4[C@H](O)[C@H](O)[C@H](O[C@H]5[C@H](O)[C@H](O)[C@H](O[C@H]6[C@H](O)[C@H](O)C(O)O[C@@H]6CO)O[C@@H]5CO)O[C@@H]4CO)O[C@@H]3CO)O[C@@H]2CO)[C@@H](O)[C@@H](O)[C@@H]1O (stereo partly drawn) [M6, mannohexaose] | 33.8 | 165 ± 10 | 205 ± 40 | –
7 | diacetylated mannopentaose [M5Ac2] | 23.5 | – | – | –
8 | diacetylated mannotetraose [M4Ac2] | 25.7 | – | – | –
